Results published in publication PMC7339578, “Multiple circulating alkaloids and saponins from intravenous Kang-Ai injection inhibit human cytochrome P450 and UDP-glucuronosyltransferase isozymes: potential drug–drug interactions” (Chinese Medicine, 2020).
Where “and” joins values, the source holds several entries; their conditions need not be identical. Equal values may be shown once. Read-outs that look alike come from different tables or passages of the source. Each block holds one molecule with its values, some of them ahead of it.

Key:
[1] = Biliary (hepatobiliary) excretion in rats after a 30-min infusion of Kang-Ai injection; assay type: in vivo, Sprague–Dawley rats; settings: rat bile 0–12 h; Kang-Ai injection 6 mL/kg iv
Method in brief: (§1)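 Urine collected in metabolic cages at 0–4, 4–8, 8–12 h and bile at 0–3, 3–6, 6–9, 9–12 h after infusion start, weighed and frozen at −80 °C. Non-compartmental analysis; CLR and CLB as cumulative urinary or biliary amount divided by plasma AUC0-∞, fe-U and fe-B as cumulative amount/dose; mean ± SD (n = 3).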

UGT1A9 = molecular target: T1, UGT1A9 (Homo sapiens, UniProt O60656); assay: Inhibition of expressed UGT1A9 (probe propofol); assay type: in vitro ADME; settings: recombinant isozyme; mean ± SD of triplicate; unit not given (IC50 classes in μM); read-out: IC50 towards UGT1A9
T1 sequence (O60656 26-530): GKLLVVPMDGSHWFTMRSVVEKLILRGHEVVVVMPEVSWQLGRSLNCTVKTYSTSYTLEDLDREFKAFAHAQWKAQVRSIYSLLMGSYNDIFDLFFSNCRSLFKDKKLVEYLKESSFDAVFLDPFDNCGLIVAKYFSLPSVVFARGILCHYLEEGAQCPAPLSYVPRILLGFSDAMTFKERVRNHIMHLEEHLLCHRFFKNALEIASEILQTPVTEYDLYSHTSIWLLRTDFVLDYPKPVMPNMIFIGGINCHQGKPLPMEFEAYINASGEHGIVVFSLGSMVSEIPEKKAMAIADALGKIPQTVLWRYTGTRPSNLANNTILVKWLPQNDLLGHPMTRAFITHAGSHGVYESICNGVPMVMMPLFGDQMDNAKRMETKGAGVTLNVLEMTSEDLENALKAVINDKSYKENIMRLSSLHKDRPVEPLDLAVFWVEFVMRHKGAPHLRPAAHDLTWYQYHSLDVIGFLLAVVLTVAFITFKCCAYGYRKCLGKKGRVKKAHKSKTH
Method: (§2) After centrifugation (13,800g, 10 min), the supernatant (8 μL) was obtained for determination by UHPLC system.
(§3) Similarly, β-estradiol (60 μM), propofol (40 μM) and 4-MU (350 μM) were typically used as the substrates for UGT1A1, 1A9 and 2B7, respectively. After optimization of incubation conditions (Additional file 1: Fig. S2), the protein concentrations for UGT1A1, 1A9, and 2B7 were 0.125, 0.05, and 0.05 mg/mL, respectively.

[2] = Urinary (renal) excretion in rats after a 30-min infusion of Kang-Ai injection; assay type: in vivo, Sprague–Dawley rats; settings: Kang-Ai injection 6 mL/kg iv; for CL renal: male, Sprague-Dawley, urine and plasma, rat, read-out: CLR (renal excretory clearance) (converted); for fe-U,0–12h (fraction of dose excreted into urine): rat urine 0–12 h; for fraction of dose excreted unchanged via renal plus hepatobiliary excretion (sum of fe-U and fe-B): rat urine + bile, 0–12 h
Method in brief: as §1

CYP3A4 = CYP3A4 (Homo sapiens, UniProt P08684); assay: Inhibition of recombinant CYP3A4 (probe nifedipine); assay type: in vitro ADME; settings: for IC50: read-out: IC50 towards CYP3A4
Method: In this study, phenacetin (100 μM), coumarin (100 μM), bupropion (100 μM), paclitaxel (60 μM), tolbutamide (200 μM), mephenytoin (100 μM), chlorzoxazone (200 μM) and nifedipine (40 μM) have been used as the probe substrates for CYP1A2, 2A6, 2B6, 2C8, 2C9, 2C19, 2E1 and 3A4, respectively.

UGT2B7 = molecular target: T2, UGT2B7 (Homo sapiens, UniProt P16662); assay: Inhibition of expressed UGT2B7 (probe 4-MU); assay type: in vitro ADME; settings: recombinant isozyme; mean ± SD of triplicate; unit not given (IC50 classes in μM); read-out: IC50 towards UGT2B7
T2 sequence (P16662 24-529): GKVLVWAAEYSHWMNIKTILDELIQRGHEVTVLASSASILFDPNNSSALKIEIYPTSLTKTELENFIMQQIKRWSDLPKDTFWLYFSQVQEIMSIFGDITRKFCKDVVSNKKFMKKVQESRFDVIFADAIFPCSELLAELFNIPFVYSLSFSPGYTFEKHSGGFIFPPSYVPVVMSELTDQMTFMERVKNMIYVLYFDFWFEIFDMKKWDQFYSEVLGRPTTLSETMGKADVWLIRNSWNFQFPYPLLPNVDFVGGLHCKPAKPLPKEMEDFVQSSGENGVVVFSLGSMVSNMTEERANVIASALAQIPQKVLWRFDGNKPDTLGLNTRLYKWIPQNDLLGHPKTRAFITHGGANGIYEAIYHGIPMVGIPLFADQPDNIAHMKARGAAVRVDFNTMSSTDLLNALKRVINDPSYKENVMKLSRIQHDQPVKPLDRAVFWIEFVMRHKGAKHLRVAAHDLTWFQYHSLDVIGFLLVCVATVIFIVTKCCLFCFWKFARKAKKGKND
Method: as §2, §3

[3] = Stability tests of analytes in rat plasma QC samples; assay type: in vitro ADME; settings: rat plasma
Method: […] The dilution integrity was investigated by analyzing six replicate samples with each analyte, and each analyte were diluted 10-fold with blank rat matrix. Furthermore, the diluted samples were analyzed using freshly prepared calibration curve to calculate RE and RSD, which should be no more than ± 15% as criterion.

[4] = recombinant isozyme, mean ± SD of triplicate, unit not given (IC50 classes in μM)

Sequence of CYP3A4 (P08684 whole entry): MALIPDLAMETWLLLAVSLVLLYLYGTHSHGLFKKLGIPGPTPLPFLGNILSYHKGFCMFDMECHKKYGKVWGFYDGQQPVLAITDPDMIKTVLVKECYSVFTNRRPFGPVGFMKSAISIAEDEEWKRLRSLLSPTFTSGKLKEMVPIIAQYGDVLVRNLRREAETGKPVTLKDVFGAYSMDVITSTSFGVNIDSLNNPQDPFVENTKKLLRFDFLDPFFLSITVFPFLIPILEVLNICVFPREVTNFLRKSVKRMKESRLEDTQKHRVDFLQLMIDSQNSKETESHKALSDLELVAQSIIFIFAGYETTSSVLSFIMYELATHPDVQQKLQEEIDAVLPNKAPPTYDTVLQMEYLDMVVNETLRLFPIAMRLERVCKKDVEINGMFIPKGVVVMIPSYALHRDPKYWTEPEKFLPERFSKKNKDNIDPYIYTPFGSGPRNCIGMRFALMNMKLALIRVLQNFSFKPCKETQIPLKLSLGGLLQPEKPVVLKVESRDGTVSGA

- fe-B,0–12h (fraction of dose excreted into bile) [1]: 28.27 ± 4.16%
- IC50 (UGT1A9): > 100 µM
- CL renal [2]: 0.767 mL/min
- fe-U,0–12h (fraction of dose excreted into urine) [2]: 29.54 ± 6.03%
- fraction of dose excreted unchanged via renal plus hepatobiliary excretion (sum of fe-U and fe-B) [2]: ~60%
- IC50 (CYP3A4; [4]): > 100 µM
- IC50 (UGT2B7): > 100 µM
- At -80 °C for 48 h, Mean±SD ([3]; nominal conc. 40 nM): 37.07 ± 2.41 nM
- At -80 °C for 48 h, RE ([3]; nominal conc. 40 nM): -12.37%
- Extracted samples at 8 °C for 18 h, Mean±SD ([3]; nominal conc. 40 nM): 39.68 ± 3.10 nM
- Extracted samples at 8 °C for 18 h, RE ([3]; nominal conc. 40 nM): -8.46%
- Short-term stability at room temperature for 6 h, Mean±SD ([3]; nominal conc. 40 nM): 42.26 ± 4.77 nM
- Short-term stability at room temperature for 6 h, RE ([3]; nominal conc. 40 nM): 12.91%
- Three freeze-thaw cycles (-80 °C ↔ 23 °C), Mean±SD ([3]; nominal conc. 40 nM): 39.18 ± 1.53 nM
- Three freeze-thaw cycles (-80 °C ↔ 23 °C), RE ([3]; nominal conc. 40 nM): -5.32%
- At -80 °C for 48 h, Mean±SD ([3]; nominal conc. 200 nM): 181.77 ± 7.39 nM
- At -80 °C for 48 h, RE ([3]; nominal conc. 200 nM): -12.74%
- Extracted samples at 8 °C for 18 h, Mean±SD ([3]; nominal conc. 200 nM): 193.91 ± 26.18 nM
- Extracted samples at 8 °C for 18 h, RE ([3]; nominal conc. 200 nM): -12.50%
- Short-term stability at room temperature for 6 h, Mean±SD ([3]; nominal conc. 200 nM): 175.60 ± 2.61 nM
- Short-term stability at room temperature for 6 h, RE ([3]; nominal conc. 200 nM): -13.13%
- Three freeze-thaw cycles (-80 °C ↔ 23 °C), Mean±SD ([3]; nominal conc. 200 nM): 205.17 ± 19.51 nM
- Three freeze-thaw cycles (-80 °C ↔ 23 °C), RE ([3]; nominal conc. 200 nM): 11.83%
- At -80 °C for 48 h, Mean±SD ([3]; nominal conc. 800 nM): 836.79 ± 51.65 nM
- At -80 °C for 48 h, RE ([3]; nominal conc. 800 nM): 10.56%
- Extracted samples at 8 °C for 18 h, Mean±SD ([3]; nominal conc. 800 nM): 827.44 ± 80.86 nM
- Extracted samples at 8 °C for 18 h, RE ([3]; nominal conc. 800 nM): 12.75%
- Short-term stability at room temperature for 6 h, Mean±SD ([3]; nominal conc. 800 nM): 724.25 ± 14.79 nM
- Short-term stability at room temperature for 6 h, RE ([3]; nominal conc. 800 nM): -11.32%
- Three freeze-thaw cycles (-80 °C ↔ 23 °C), Mean±SD ([3]; nominal conc. 800 nM): 818.48 ± 84.93 nM
- Three freeze-thaw cycles (-80 °C ↔ 23 °C), RE ([3]; nominal conc. 800 nM): 12.80%
SMILES: CC(C)=CCC[C@](C)(O[C@@H]1O[C@H](CO)[C@@H](O)[C@H](O)[C@H]1O)[C@H]1CC[C@]2(C)[C@@H]1[C@H](O)C[C@@H]1[C@@]3(C)CC[C@H](O)C(C)(C)[C@@H]3[C@@H](O[C@@H]3O[C@H](CO)[C@@H](O)[C@H](O)[C@H]3O[C@@H]3O[C@@H](C)[C@H](O)[C@@H](O)[C@H]3O)C[C@]12C [Compound C9, Ginsenoside Re]

- fe-B,0–12h (fraction of dose excreted into bile) [1]: 5.55% and 5.55 ± 1.02%
- IC50 (UGT1A9): > 100 µM
- CL renal [2]: 0.0185 mL/min
- fe-U,0–12h (fraction of dose excreted into urine) [2]: 19.00 ± 5.33%
- fraction of dose excreted unchanged via renal plus hepatobiliary excretion (sum of fe-U and fe-B) [2]: about 25%
- inhibition type (smallest AIC and SC) (CYP3A4; CYP3A4): Noncompetitive inhibition
- Ki (CYP3A4; CYP3A4, competitive model): 8.7 ± 2.3 µM
- Ki (CYP3A4; CYP3A4, mixed-type model): 44.2 ± 16.2 µM
- α (CYP3A4; CYP3A4, mixed-type model): 0.6 ± 0.3
- Ki (CYP3A4; CYP3A4, noncompetitive model): 32.8 ± 2.2 µM
- Cmax/Ki ([I]/Ki) (CYP3A4; CYP3A4, selected model, rat plasma Cmax): 0.02
- IC50 (CYP3A4; nifedipine 40 μM): 41 µM
- IC50 (CYP3A4; [4]): 41 ± 25.8 µM
- IC50 (UGT2B7): > 100 µM
- At -80 °C for 48 h, Mean±SD ([3]; nominal conc. 20 nM): 20.86 ± 2.70 nM
- At -80 °C for 48 h, RE ([3]; nominal conc. 20 nM): 13.40%
- Extracted samples at 8 °C for 18 h, Mean±SD ([3]; nominal conc. 20 nM): 21.52 ± 1.04 nM
- Extracted samples at 8 °C for 18 h, RE ([3]; nominal conc. 20 nM): 11.29%
- Short-term stability at room temperature for 6 h, Mean±SD ([3]; nominal conc. 20 nM): 20.41 ± 1.88 nM
- Short-term stability at room temperature for 6 h, RE ([3]; nominal conc. 20 nM): -8.78%
- Three freeze-thaw cycles (-80 °C ↔ 23 °C), Mean±SD ([3]; nominal conc. 20 nM): 21.38 ± 0.85 nM
- Three freeze-thaw cycles (-80 °C ↔ 23 °C), RE ([3]; nominal conc. 20 nM): 11.74%
- At -80 °C for 48 h, Mean±SD ([3]; nominal conc. 100 nM): 94.76 ± 3.45 nM
- At -80 °C for 48 h, RE ([3]; nominal conc. 100 nM): -9.18%
- Extracted samples at 8 °C for 18 h, Mean±SD ([3]; nominal conc. 100 nM): 93.92 ± 4.07 nM
- Extracted samples at 8 °C for 18 h, RE ([3]; nominal conc. 100 nM): -9.39%
- Short-term stability at room temperature for 6 h, Mean±SD ([3]; nominal conc. 100 nM): 96.61 ± 5.06 nM
- Short-term stability at room temperature for 6 h, RE ([3]; nominal conc. 100 nM): -8.93%
- Three freeze-thaw cycles (-80 °C ↔ 23 °C), Mean±SD ([3]; nominal conc. 100 nM): 101.66 ± 11.99 nM
- Three freeze-thaw cycles (-80 °C ↔ 23 °C), RE ([3]; nominal conc. 100 nM): 13.24%
- At -80 °C for 48 h, Mean±SD ([3]; nominal conc. 400 nM): 419.98 ± 19.52 nM
- At -80 °C for 48 h, RE ([3]; nominal conc. 400 nM): 10.54%
- Extracted samples at 8 °C for 18 h, Mean±SD ([3]; nominal conc. 400 nM): 411.97 ± 35.80 nM
- Extracted samples at 8 °C for 18 h, RE ([3]; nominal conc. 400 nM): 9.32%
- Short-term stability at room temperature for 6 h, Mean±SD ([3]; nominal conc. 400 nM): 362.78 ± 5.91 nM
- Short-term stability at room temperature for 6 h, RE ([3]; nominal conc. 400 nM): -10.80%
- Three freeze-thaw cycles (-80 °C ↔ 23 °C), Mean±SD ([3]; nominal conc. 400 nM): 397.28 ± 35.89 nM
- Three freeze-thaw cycles (-80 °C ↔ 23 °C), RE ([3]; nominal conc. 400 nM): 9.66%
SMILES: CC(C)=CCC[C@](C)(O[C@@H]1O[C@H](CO)[C@@H](O)[C@H](O)[C@H]1O)[C@H]1CC[C@]2(C)[C@@H]1[C@H](O)C[C@@H]1[C@@]3(C)CC[C@H](O[C@@H]4O[C@H](CO)[C@@H](O)[C@H](O)[C@H]4O[C@@H]4O[C@H](CO)[C@@H](O)[C@H](O)[C@H]4O)C(C)(C)[C@@H]3CC[C@]12C [Compound D2, Ginsenoside Rd]
